Results as given in patent US20180153830A1, “SELECTIVE INHIBITORS OF UNDIFFERENTIATED CELLS” (Yissum Research Development Company of the Hebrew …, priority 2012, published 2018).
Counter-ions that a name gives are not always drawn. Peptide text beside a SMILES is read from it. * marks the point of attachment. Cbz = O=C(OCc1ccccc1)*; CH2F = FC*

Legend:
[1] = tested on: human embryonic stem cells; experiment: Pancaspase inhibitor effect on PluriSIn #1-induced cell death; format: cell-based; settings: 25 μM or 100 μM, 1 hour before 20 μM PluriSIn #1; 24 hours
Method: The effect of the pancaspase inhibitor Z-VAD-FMK on PluriSIn #1-induced cell death was also examined. Cells were treated with 25 μM or 100 μM of Z-VAD-FMK, and 1 hour later PluriSIn #1 (20 μM) was added to the medium. After 24 hours, the cultures were subjected to cell viability measurements, as described hereinabove.

[2] = hPSC viability after SCD1 inhibitors with or without oleic acid; format: cell-based, human; settings: human, human pluripotent stem cells (hPSCs), 75 nM, read-out: decrease in viability of hPSCs
Method: (§1) In order to determine whether hPSC viability indeed depends on functional SCD1 activity, hPSCs were exposed to 75 nM of the specific SCD1 inhibitors A939572 and CAY-10566 for 48 hours. Some samples were supplemented with 100 μM oleic acid in order to evaluate the effect of exogenous supplementation of oleic acid (a product of SCD1 activity) on cell death.

hPSCs = experiment: as above; format: cell-based, human; settings: 75 nM inhibitor, 100 μM oleic acid, 48 hours
Method: as §1

[3] = tested on: human pluripotent stem cells (hPSCs); experiment: Pilot cytotoxicity screen with 50 commercially available compounds; format: cell-based; settings: within 24 hours
Method: (§2) The CellTiter-Glo® luminescent cell viability assay (Promega, Madison, Wis.) was implemented as a high-throughput screening (HTS) assay for a chemical library screen in a 384-well format. After the DMSO tolerance of the assay was assessed, and the optimal cell numbers were determined for each cell type, a pilot screen was performed with the following 50 commercially available compounds:
(§3) 3-acetamidophenol, 4-acetamidophenol, 6-methylcoumarin, acetaminophen, acetazolamide, actidione, amantadine hydrochloride, aminosalicylic acid, amodiaquine, amsacrine hydrochloride, aztreonam, caffeine, carboplatin, cefamandole sodium, cholic acid, ciprofloxacin, clozapine, coumarin, crotaline, diflunisal, dopamine, doxycycline, erythromycin, estradiol, famotidine, fenofibrate, fludrocortisone acetate, gentamicin, imipramine, isoniazid, isoproterenol, kanamycin, ketoconazole, L-thyroxine, mefenamic acid, nadolol, naibuphine hydrochloride hydrate, nizatidine, norepinephrine, phenobarbital, quinine hydrochloride, salicylate, sodium 2-mercapto-ethanesulfonate, sulfasalazine, sulindac, tetracycline, tetraethylthiarum disulfide, timolol maleate, valproic acid sodium, and WY-14643.
(§4) A pilot screen was then performed with 50 commercially-available compounds (as described in the Materials and Methods section hereinabove), which were randomly selected from a bank of known cytotoxic compounds. […]

[4] = tested on: human embryonic stem cells; experiment: Oleic acid rescue assay; format: cell-based; settings: 20 μM PluriSIn (2 μM amsacrine); up to 100 μM BSA-OA
Method: Human embryonic stem cells were cultured without feeder cells in CELLSTAR® 24-well tissue culture plates (Greiner Bio-One) pre-coated with Matrigel™, using mTeSR1 defined medium. […] After 24 hours, the cells were subjected to microscopy imaging and to cell viability measurements.
In order to further investigate the effect of SCD activity on hPSC viability, the ability of exogenous supplementation of oleic acid (the direct product of SCD1) to rescue cells from PluriSIn-induced apoptosis was further studied, using procedures described in the Materials and Methods section. Cells were exposed to PluriSn #1 in the presence of increasing concentrations of BSA-conjugated oleic acid (BSA-OA).
For comparison, cells were exposed to 20 μM of PluriSIn #1, #2, #3 and #6 in the presence of 100 μM BSA-OA.

[5] = Pilot cytotoxicity screen with 50 commercially available compounds; format: cell-based, human; settings: human; after 24 hours, at a concentration of 1-3 μM; read-out: decrease in cell viability
Method: as §2, §3, §4

[6] = tested on: embryonic stem cells and differentiated cells (human fibroblasts); experiment: Cytotoxicity of ER stress inducer and protein synthesis inhibitor with or without oleic acid

COC(=O)C[C@H](NC(=O)[C@H](C)NC(=O)[C@@H](NC(=O)OCc1ccccc1)C(C)C)C(=O)CF [Z-VAD-FMK] (Cbz-Val-Ala-Asp(OMe)-CH2F)
suppression of PluriSIn #1-induced cell death [1]: significant suppressed PluriSIn #1-induced cell death

Cc1nnc(-c2ccc(N3CCC(Oc4cc(F)ccc4Cl)CC3)nn2)o1 [CAY-10566, 3-[4-(2-chloro-5-fluorophenoxy)-1-piperidinyl]-6-(5-methyl-1,3,4-oxadiazol-2-yl)-pyridazine]
cytotoxicity at 48 h, 75 nM [2]: > 80%
rescue from SCD1 inhibitor-induced cell death by oleic acid (hPSCs): completely rescued

COc1cc(NS(C)(=O)=O)ccc1Nc1c2ccccc2nc2ccccc12 [amsacrine hydrochloride, reference compound]
cell killing [3]: killed almost all cells
protection by BSA-conjugated oleic acid (BSA-OA) against cell death induced by the compound [4]: did not protect

C[C@@H]1C[C@@H]([C@H](O)CC2CC(=O)NC(=O)C2)C(=O)[C@@H](C)C1 [cycloheximide]
cytotoxicity at 24 h [5]: ~50%
protection by oleic acid against the compound's cytotoxicity ([6]; 100 μM oleic acid): does not protect
cytotoxicity towards embryonic stem cells and differentiated cells ([6]; 1 mM dithiothreitol or 10 μM cycloheximide, 48 hours): cytotoxic towards both embryonic stem cells and differentiated cells
